Results taken from patent US20180284095A1, “BIOMARKERS ASSOCIATED WITH LSD1 INHIBITORS AND USES THEREOF” (Oryzon Genomics, S.A., priority 2015, published 2018).

How the values were obtained:
Format in all cases: in vivo, mouse
S100A9 [1] = assay: Illumina RNA sequencing, hippocampus of SAMP8 mice (Example 4)
Method: Illumina dye sequencing begins with the attachment of cDNA molecules to primers on a slide, followed by amplification of that DNA to produce local colonies. The four types (adenine, cytosine, guanine, and thymine) of reversible terminate bases are added, each fluorescently labeled with a different color and attached with a blocking group. The four bases then compete for binding sites on the template cDNA to be sequenced and non-incorporated molecules are washed away. After each synthesis, a laser is used to excite the dyes and a photograph of the incorporated base is taken. A chemical deblocking step is then used in the removal of the 3′ terminal blocking group and the dye in a single step. The process is repeated until the full cDNA molecule is sequenced.
Illumina RNA-Seq technology records the numerical frequency of sequences in a library population. 50 bp single reads with multiples of 30M single reads are guaranteed using Illumina sequencing technology. The RNA-Seq reads are aligned to the reference genome or reference transcriptome using Bowtie generating genome/transcriptome alignments. TopHat identifies the potential exon-exon splice junctions of the initial alignment. Then Cufflinks identifies and quantifies the transcripts from the preprocessed RNA-Seq alignment assembly. After this, Cuffmerge merges the identified transcript pieces to full length transcripts and annotates the transcripts based on the given annotations. Finally, merged transcripts from two or more samples/conditions are compared using Cuffdiff to determine the differential expression levels at transcript and gene level including a measure of significance between samples/conditions.
Differential gene expression. Operating on the RNA-Seq alignments and Cuffinks processing, Cuffdiff tracks the mapped reads and determines the fragment per kilo base per million mapped reads (FPKM) for each transcript in all the samples. Primary transcripts and gene FPKMs are then computed by adding up the FPKMs of each primary transcript group or gene group. […]

S100A9 [2] = assay: qRT-PCR, hippocampus of SAMP8 mice (Example 5); conditions: 2 or 4 months
Description: (§1) qRT-PCR is a variant of the PCR (Polymerase Chain Reaction) method that permits the simultaneous exponential amplification and detection of specific cDNA fragments. The Taqman gene expression assays employ the principle of doubly labeled hydrolysis probes. The probes are marked with a fluorescent moiety at their 5′ end and with a quencher moiety at the 3′ end, which prevents the generation of fluorescence according to the Förster energy transfer principle.
(§2) During the amplification process, the hydrolysis probe hybridizes to its complementary sequence in the target amplicon. During each cycle, the Taq polymerase initiates the production of a copy of the target sequence starting from the primer. When the Taq polymerase reaches the hydrolysis probe, its 5′-3′ exonuclease activity fragments the hydrolysis probe, and liberates the fluorescent group from the quencher moiety, resulting in the emission of a fluorescent signal.
(§3) In the exponential phase of the amplification reaction, the intensity of the fluorescence is directly proportional to the quantity of PCR product formed. The LightCycler® 480 Software determines the “crossing point” (Cp), i.e. the point where the reaction's fluorescence reaches the maximum of the second derivative of the amplification curve, which corresponds to the point where the acceleration of the fluorescence signal is at its maximum. […] The 2-Cp values are proportional to the target mRNA concentration in the original RNA sample.
(§4) Samples from animals receiving treatment for 2 months and 4 months were processed and statistically analyzed together. After extraction (RNeasy Mini KIT; QIAGEN), total RNA was reverse transcribed to obtain 1st strand cDNA (High Capacity RNA-to-cDNA Master Mix; Applied Biosystems). A serial dilution of 1st strand product from hippocampus was used to perform triplicate qRT-PCR (Taqman gene expression assay, Life technologies) reactions to analyze the Cp values of S100A8 and S100A9. Cp increase was normalized relative to the expression level of an endogenous reference gene (GADPH).

S100A8 = assay: qRT-PCR, hippocampus of SAMP8 mice (Example 5); conditions: SAMP8 female mice
Description: as §1, §2, §3, §4

## (−) 5-((((trans)-2-(4-(benzyloxy)phenyl)cyclopropyl)amino)methyl)-1,3,4-oxadiazol-2-amine [Compound 1]
S100A9 [1]; hippocampus pool, SAMP8 females, 0.96 mg/kg/day, 4 months
  Female FPKM S100A9: 0.61 FPKM
S100A9 [1]; hippocampus pool, SAMP8 males, 0.32 mg/kg/day, 4 months
  Male FPKM S100A9: 1.03 FPKM
S100A9 [1]; hippocampus, SAMP8, vs vehicle-treated animals of the same sex
  S100A9 expression (RNA-seq): down-regulated S100A9 expression
S100A9 [2]; SAMP8 females, 0.96 mg/kg/day (p<0.001) and 3.2 mg/kg/day (p<0.001)
  S100A9 expression (Δ Cp, qRT-PCR): down-regulated S100A9 expression in a dose-dependent fashion
S100A9 [2]; SAMP8 females, 0.96 mg/kg/day (p<0.001) and 3.2 mg/kg/day (p<0.001), listed as compound 1
  S100A9 expression (Δ Cp, qRT-PCR): reduction of S100A9 expression
S100A9 [2]; SAMP8 males, 0.96 mg/kg (p<0.001), 0.96 mg/kg
  S100A9 expression (Δ Cp, qRT-PCR): down-regulated S100A9 expression
S100A9 [2]; SAMP8 males, 0.96 mg/kg (p<0.001), listed as compound 1, 0.96 mg/kg
  S100A9 expression (Δ Cp, qRT-PCR): reduction of S100A9 expression
S100A8
  S100A8 expression (qRT-PCR): down-regulated S100A8 expression tendency
